This note sets out measurements from patent US20050129782A1, “Use of inorganic nanoparticles to stabilize hydrogen peroxide solutions” (Alcon, Inc., priority 2003, published 2005).

Data set [1] in a line: Stability of 3% hydrogen peroxide solutions with stabilizing agents, heated at 100° C. for 24 hours, KMnO4 titration (Example 1). The data set is classed as physicochemical. As to conditions: 3% H2O2, phosphate buffer pH 6.5, 100° C. 24 hours vs 25° C. As for the experimental part:
3% hydrogen peroxide solutions containing three different stabilizing agents were formulated in phosphate buffer at pH 6.5. 10 ml samples were heated in HCl-cleaned test tubes at 100° C. for 24 hours to simulate a two year shelf life. Then a 200 microliter aliquot was added to 40 ml of a 2.75% H2SO4 solution and titrated with 0.01N KMnO4.

Data set [2] is described as follows: Stability of 100 ppm H2O2 at various pHs, heated at 100° C. for 24 hours, KMnO4 titration (Example 3). The data set is classed as physicochemical. The settings on record: 60 ppm Dequest 2060 (control); 100 ppm H2O2, pH 6.5; 100° C. 24 hours vs RT. As for the experimental part:
The effectiveness of 50 ppm Laponite® XLG to stabilize 100 ppm H2O2 at various pH levels was evaluated.
50 ppm Laponite® XLG was formulated in a phosphate buffer (0.8655% NaCl, 0.0622% sodium phosphate dibasic, 0.0072% sodium phosphate monobasic monohydrate), along with 100 ppm hydrogen peroxide (from a 30% unstabilized solution). 100 mL samples were then adjusted to pH levels of 6.5, 7.0 and 7.5, respectively. 10 mL of each sample was then placed in a test tube, sealed with a screw cap, and heated to 100° C. for 24 hours. After heating, 5 mL of each sample was titrated with 0.002% KMnO4 and compared to the unheated sample to obtain % stability. 60 ppm of Dequest® 2060 at pH 6.5 was used as a control.

In the case of `O=C(O)CN(CCN(CC(=O)O)CC(=O)O)CC(=O)O` [EDTA], the “% Stability of H2O2” value in data set [1] (stabilizer 500 ppm) came to 24.8%.

On to `O=P(O)(O)CN(CCN(CP(=O)(O)O)CP(=O)(O)O)CCN(CP(=O)(O)O)CP(=O)(O)O` [Dequest ® 2060], for which, in data set [1] (stabilizer 180 ppm), the “% Stability of H2O2” value was found to be 98.2%. In data set [2], the “% stability” value is 92.9%.
